For test [1], the target named is Intestinal-type alkaline phosphatase (Homo sapiens, UniProt P09923). Kind of test: activation of human intestinal alkaline phosphatase – biochemical, dose response (AID 488873). The format is functional.
Test [2] deals with Intestinal-type alkaline phosphatase (Mus musculus, UniProt P24822). Kind of test: mouse intestinal alkaline phosphatase activators, dose response, biochemical, luminescence, uHTS hits (AID 488783). Type of test: functional.
The target of test [3] is Large T antigen (Simian virus 40, UniProt P03070). The format is functional, Betapolyomavirus macacae.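 Note: Confirmatory-stage PubChem screen for compounds that inhibit SV40 T antigen.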
In test [4] the target is T1, Alkaline phosphatase, tissue-nonspecific isozyme (Homo sapiens, UniProt P05186).
T1 sequence (P05186 whole entry): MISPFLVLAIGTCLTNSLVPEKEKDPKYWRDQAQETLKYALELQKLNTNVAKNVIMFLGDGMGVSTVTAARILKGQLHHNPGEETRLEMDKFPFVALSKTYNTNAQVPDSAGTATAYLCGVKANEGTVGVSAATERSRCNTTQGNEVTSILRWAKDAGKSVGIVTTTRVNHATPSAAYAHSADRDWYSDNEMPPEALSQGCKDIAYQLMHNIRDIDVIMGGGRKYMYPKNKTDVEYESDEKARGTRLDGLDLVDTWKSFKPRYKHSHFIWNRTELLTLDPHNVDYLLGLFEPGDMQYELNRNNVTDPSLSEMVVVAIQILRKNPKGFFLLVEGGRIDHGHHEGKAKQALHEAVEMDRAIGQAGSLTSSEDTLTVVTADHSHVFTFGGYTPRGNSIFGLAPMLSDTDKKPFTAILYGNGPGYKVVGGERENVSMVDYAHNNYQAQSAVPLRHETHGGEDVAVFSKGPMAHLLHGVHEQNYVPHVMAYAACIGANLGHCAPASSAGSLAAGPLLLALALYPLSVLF
Kind of test: activation of tissue-nonspecific alkaline phosphatase – biochemical, TNAP isozyme, mouse IAP uHTS hits, selectivity assay for mouse IAP activator project, dose response (AID 488880). The format is functional.

For test [5], the target named is T2, Tyrosine-protein phosphatase non-receptor type 22 (Homo sapiens, UniProt Q9Y2R2).
T2 sequence (Q9Y2R2 whole entry): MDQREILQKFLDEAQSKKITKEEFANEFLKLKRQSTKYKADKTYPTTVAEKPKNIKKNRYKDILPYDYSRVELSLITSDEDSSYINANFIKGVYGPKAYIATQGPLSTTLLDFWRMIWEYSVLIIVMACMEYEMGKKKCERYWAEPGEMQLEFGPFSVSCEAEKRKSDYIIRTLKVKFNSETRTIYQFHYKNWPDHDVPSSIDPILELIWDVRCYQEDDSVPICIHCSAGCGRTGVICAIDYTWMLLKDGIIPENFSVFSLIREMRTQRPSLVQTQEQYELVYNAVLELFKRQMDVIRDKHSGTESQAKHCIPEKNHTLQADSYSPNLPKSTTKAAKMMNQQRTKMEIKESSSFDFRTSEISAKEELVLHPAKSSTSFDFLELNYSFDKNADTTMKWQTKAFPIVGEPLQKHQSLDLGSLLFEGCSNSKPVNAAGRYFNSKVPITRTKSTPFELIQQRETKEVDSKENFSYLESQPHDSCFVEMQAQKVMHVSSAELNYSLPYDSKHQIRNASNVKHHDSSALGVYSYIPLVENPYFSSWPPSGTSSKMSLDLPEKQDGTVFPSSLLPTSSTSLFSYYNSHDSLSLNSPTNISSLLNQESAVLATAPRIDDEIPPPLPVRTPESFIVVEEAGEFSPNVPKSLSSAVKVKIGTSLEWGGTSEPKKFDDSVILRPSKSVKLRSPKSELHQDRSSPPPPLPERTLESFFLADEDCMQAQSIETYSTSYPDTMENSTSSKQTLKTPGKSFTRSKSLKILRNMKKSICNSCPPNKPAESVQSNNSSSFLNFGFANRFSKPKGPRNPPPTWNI
Kind of test: inhibition of lymphoid tyrosine phosphatase LYP – biochemical, pCAP fluorogenic substrate, fluorescence, set 3, SAR follow-up (AID 449727). The format is functional.

Test [6] addresses T2, Tyrosine-protein phosphatase non-receptor type 22. Kind of test: SAR LYP1 Fluorescent Assay using pCAP substrate for In Vitro dose response studies - Set 2. [Related pubchem assays (depositor defined):AID1779, AID1784, AID2135, AID449727]. The format is functional.
Test [7] shares this target. Kind of test: SAR LYP1 Fluorescent Assay using OMFP substrate for In Vitro dose response studies - Set 3. [Related pubchem assays (depositor defined):AID1779, AID1784, AID2140, AID2686]. Type of test: functional.
Test [8] deals with T3, Voltage-gated N-type calcium channel alpha-1B subunit/Amyloid beta A4 precursor protein-binding family A member 1 (Homo sapiens, UniProt Q00975+Q02410). The format is protein assay.
Test [9] deals with T2, Tyrosine-protein phosphatase non-receptor type 22. Kind of test: LYP1 Fluorescent Assay using OMFP substrate for In Vitro dose response studies. [Related pubchem assays (depositor defined):AID1779, AID1784, AID435024].
Test [10] shares this target. Kind of test: PubChem AID 2140.
Test [11] is described as follows: viability of uninfected HEp-2 cells – cell-based, HTS, cytotoxicity control for RSV inhibitor project, dose response (AID 2410). The format is functional. The following applies: human respiratory syncytial virus.
For test [12], the target named is T3, Voltage-gated N-type calcium channel alpha-1B subunit/Amyloid beta A4 precursor protein-binding family A member 1. The format is protein assay. The source holds these as a separate data set.
Test [13] addresses T4, Tyrosine-protein phosphatase non-receptor type 7 (Homo sapiens, UniProt P35236).
T4 sequence (P35236 whole entry): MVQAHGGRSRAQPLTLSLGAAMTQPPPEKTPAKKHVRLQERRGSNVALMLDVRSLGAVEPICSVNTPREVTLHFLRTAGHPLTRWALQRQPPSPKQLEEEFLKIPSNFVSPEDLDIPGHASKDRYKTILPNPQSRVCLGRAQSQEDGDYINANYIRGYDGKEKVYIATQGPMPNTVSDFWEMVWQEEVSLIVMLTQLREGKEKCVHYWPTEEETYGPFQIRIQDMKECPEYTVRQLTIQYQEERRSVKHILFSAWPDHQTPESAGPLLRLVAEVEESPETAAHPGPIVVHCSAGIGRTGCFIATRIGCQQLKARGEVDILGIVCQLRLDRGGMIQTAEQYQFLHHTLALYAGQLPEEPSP
Type of test: functional.

In test [14] the target is Tyrosine-protein phosphatase non-receptor type 12 (Homo sapiens, UniProt Q05209). Kind of test: SAR Selectivity Analysis of small molecule inhibitors of PEST using pCAP in a fluorescence assay. [Related pubchem assays (depositor defined):AID1779, AID1784, AID2135]. The format is functional.
In test [15] the target is T2, Tyrosine-protein phosphatase non-receptor type 22. Kind of test: PTPN22 lymphoid phosphatase activity blockers – biochemical, fluorescence intensity, uHTS (AID 1779).
The target is the same in test [16]. Type of test: functional.
Test [17] shares this target. Kind of test: SAR LYP1 Fluorescent Assay using OMFP substrate for In Vitro dose response studies - Set 2. [Related pubchem assays (depositor defined):AID1779, AID1784, AID2140, AID449726, AID488869]. Type of test: functional.
The target of test [18] is T4, Tyrosine-protein phosphatase non-receptor type 7. Kind of test: HTS HePTP Fluorescent Assay using OMFP substrate for In Vitro dose response studies. [Related pubchem assays (depositor defined):AID1059, AID1077, AID1784, AID2068, AID2085, AID435032, AID521]. The format is functional.
The target in test [19] is T2, Tyrosine-protein phosphatase non-receptor type 22. Kind of test: PubChem AID 2135.
Test [20] deals with T4, Tyrosine-protein phosphatase non-receptor type 7. Kind of test: inhibition of hematopoietic tyrosine phosphatase HePTP – biochemical, set 2, SAR follow-up (AID 449736). The format is functional.
The target of test [21] is T2, Tyrosine-protein phosphatase non-receptor type 22. Type of test: functional. The source holds these as a separate data set.
Test [22] has as its target T5, Kappa-type opioid receptor (Homo sapiens, UniProt P41145). Kind of test: kappa opioid receptor blockers, cell-based, luminescence, beta-arrestin, SAR follow-up (AID 2285). The format is functional.
The target in test [23] is T6, Mu-type opioid receptor (Homo sapiens, UniProt P35372). Kind of test: mu opioid receptor blockers – image-based, SAR follow-up (AID 2420).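 Note: compounds added before stimulation of receptor with agonist DAMGO.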 The format is functional.
Test [24] concerns the target T7, Delta-type opioid receptor (Homo sapiens, UniProt P41143). Kind of test: DOR agonists, SAR follow-up, image-based (AID 2370). Type of test: functional.
In test [25] the target is T7, Delta-type opioid receptor. Kind of test: delta opioid receptor blockers – image-based, SAR follow-up (AID 2357). Type of test: functional.
The target of test [26] is T5, Kappa-type opioid receptor. Kind of test: kappa opioid receptor activation potency – imaging, image-based, SAR follow-up (AID 2359). Type of test: functional.
Test [27] deals with T6, Mu-type opioid receptor. Kind of test: mu opioid receptor activators, image-based, SAR follow-up (AID 2352). The format is functional.
The target in test [28] is T5, Kappa-type opioid receptor. Kind of test: kappa opioid receptor blockers, image-based, SAR follow-up (AID 2348). The format is functional.
Test [29] has as its target T5, Kappa-type opioid receptor. Kind of test: SAR analysis of small molecule antagonists of the kappa opioid receptor via a luminescent beta-arrestin assay - Set 4. [Related pubchem assays (depositor defined):AID1777, AID1778, AID1785, AID1786, AID1966, AID2133, AID2136, AID2285]. The format is functional.
Test [30] has as its target T5, Kappa-type opioid receptor. Kind of test: SAR analysis of small molecule antagonists of the kappa opioid receptor via a luminescent beta-arrestin assay - Set 5. [Related pubchem assays (depositor defined):AID1778, AID1785]. The format is functional.

Activity calls are given as the source filed them. Some results are limits rather than exact numbers.

T5 sequence (P41145 whole entry): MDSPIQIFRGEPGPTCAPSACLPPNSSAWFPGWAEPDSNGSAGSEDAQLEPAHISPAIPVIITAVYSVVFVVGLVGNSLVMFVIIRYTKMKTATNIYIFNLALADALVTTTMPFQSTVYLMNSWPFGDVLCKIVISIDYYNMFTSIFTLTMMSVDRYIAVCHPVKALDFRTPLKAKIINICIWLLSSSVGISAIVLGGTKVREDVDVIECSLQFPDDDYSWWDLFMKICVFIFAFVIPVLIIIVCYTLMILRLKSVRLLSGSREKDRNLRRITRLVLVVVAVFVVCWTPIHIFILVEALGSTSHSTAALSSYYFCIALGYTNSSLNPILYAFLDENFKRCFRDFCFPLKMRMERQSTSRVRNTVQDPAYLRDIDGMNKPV
T7 sequence (P41143 whole entry): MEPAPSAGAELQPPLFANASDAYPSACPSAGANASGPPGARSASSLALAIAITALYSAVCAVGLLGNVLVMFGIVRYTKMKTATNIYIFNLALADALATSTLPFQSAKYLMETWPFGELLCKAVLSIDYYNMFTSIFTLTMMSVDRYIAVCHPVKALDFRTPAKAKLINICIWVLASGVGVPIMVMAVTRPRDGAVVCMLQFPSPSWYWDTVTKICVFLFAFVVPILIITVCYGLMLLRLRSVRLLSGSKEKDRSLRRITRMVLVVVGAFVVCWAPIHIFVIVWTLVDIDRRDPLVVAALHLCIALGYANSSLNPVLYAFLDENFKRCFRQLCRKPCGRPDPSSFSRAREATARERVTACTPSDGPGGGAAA
T6 sequence (P35372 whole entry): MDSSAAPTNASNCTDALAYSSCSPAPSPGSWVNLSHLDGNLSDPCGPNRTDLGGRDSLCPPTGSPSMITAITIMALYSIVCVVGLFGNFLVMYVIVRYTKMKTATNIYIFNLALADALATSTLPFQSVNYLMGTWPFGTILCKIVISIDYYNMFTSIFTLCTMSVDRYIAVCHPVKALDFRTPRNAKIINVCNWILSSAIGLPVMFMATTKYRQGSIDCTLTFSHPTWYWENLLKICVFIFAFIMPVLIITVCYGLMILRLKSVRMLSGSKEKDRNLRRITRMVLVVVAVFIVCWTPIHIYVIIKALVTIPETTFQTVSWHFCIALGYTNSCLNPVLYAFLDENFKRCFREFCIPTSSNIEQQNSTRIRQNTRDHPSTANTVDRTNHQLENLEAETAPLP
T3 sequence (Q00975 whole entry): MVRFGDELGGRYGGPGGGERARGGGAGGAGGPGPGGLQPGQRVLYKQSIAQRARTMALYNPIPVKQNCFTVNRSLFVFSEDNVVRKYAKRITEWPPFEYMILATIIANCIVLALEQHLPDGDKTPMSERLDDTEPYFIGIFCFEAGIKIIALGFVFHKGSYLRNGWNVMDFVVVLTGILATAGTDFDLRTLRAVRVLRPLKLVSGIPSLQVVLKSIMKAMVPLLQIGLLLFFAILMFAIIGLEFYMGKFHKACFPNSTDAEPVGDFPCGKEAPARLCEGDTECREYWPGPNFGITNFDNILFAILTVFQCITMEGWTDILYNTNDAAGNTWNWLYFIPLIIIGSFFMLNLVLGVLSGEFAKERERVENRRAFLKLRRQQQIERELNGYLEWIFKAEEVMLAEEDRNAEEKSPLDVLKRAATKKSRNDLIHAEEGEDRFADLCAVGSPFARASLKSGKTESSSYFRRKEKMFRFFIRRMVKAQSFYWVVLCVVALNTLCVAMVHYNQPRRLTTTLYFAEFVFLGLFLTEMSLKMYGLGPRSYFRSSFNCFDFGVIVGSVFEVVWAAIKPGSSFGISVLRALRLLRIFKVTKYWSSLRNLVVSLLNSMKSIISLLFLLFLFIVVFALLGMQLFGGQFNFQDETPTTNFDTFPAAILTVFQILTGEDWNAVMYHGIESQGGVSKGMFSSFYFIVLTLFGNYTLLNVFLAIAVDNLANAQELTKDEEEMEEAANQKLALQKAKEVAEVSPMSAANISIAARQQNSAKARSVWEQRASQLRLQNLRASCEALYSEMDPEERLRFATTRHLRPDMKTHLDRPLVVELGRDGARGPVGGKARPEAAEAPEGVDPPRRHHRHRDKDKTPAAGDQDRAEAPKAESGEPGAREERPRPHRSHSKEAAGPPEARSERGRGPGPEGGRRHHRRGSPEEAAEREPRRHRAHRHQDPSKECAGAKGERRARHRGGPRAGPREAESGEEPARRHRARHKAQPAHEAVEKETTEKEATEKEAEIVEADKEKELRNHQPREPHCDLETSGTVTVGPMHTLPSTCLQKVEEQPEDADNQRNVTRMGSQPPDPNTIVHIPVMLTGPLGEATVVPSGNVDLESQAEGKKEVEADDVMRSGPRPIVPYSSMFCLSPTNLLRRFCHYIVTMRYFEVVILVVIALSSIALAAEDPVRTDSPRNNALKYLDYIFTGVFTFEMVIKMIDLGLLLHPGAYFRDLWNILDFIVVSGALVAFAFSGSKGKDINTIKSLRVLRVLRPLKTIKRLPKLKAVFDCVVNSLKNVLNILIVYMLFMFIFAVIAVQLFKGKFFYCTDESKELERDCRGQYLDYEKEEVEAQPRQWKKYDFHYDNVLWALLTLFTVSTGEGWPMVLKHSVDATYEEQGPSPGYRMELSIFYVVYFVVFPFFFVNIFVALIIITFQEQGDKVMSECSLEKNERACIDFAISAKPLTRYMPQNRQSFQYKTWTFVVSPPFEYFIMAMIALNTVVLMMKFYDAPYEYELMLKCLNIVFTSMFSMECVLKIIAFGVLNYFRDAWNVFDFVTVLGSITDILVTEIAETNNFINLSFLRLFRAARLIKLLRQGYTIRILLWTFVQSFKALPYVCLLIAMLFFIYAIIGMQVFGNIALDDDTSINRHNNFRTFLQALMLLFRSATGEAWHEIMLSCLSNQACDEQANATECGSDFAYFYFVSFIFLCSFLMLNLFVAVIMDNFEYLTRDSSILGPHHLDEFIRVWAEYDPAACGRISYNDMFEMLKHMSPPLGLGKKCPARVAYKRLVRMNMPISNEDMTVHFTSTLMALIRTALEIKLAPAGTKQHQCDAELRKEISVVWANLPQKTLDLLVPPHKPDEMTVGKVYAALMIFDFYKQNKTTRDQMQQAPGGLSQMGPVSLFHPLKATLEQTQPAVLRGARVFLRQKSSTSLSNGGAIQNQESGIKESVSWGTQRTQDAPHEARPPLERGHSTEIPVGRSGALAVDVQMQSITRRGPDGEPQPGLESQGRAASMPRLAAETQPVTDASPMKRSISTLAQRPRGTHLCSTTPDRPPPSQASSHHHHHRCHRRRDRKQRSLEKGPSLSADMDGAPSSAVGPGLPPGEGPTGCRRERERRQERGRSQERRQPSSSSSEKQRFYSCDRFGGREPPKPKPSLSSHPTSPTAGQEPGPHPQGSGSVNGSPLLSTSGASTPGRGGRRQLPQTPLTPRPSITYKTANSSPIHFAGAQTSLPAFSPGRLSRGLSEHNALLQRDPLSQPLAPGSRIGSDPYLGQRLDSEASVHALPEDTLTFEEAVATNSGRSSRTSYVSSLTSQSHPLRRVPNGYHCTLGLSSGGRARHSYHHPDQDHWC
T3 sequence (Q02410 whole entry): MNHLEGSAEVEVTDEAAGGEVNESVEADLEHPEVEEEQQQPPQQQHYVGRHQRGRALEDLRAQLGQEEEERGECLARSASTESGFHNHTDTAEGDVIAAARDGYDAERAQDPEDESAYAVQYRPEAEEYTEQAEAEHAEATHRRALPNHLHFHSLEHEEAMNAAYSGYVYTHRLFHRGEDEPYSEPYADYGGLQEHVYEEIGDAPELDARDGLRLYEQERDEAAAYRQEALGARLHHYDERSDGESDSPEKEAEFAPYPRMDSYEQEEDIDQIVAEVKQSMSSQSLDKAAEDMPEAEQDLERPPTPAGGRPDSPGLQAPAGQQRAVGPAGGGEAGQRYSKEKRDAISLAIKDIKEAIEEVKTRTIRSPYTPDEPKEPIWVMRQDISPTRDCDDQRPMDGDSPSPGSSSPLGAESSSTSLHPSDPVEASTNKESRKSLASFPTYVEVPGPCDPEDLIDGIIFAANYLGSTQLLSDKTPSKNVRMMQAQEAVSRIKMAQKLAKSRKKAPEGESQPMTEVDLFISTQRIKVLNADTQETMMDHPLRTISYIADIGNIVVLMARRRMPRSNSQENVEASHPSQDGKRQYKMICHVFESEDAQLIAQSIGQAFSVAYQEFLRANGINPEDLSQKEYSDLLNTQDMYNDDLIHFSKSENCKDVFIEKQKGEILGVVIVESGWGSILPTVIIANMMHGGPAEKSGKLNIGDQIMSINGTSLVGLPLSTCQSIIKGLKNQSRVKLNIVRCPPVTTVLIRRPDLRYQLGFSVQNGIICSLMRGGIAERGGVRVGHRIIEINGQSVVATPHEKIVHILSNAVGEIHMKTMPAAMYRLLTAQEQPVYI
Chain of Intestinal-type alkaline phosphatase (Mus musculus, UniProt P24822) (P24822 whole entry): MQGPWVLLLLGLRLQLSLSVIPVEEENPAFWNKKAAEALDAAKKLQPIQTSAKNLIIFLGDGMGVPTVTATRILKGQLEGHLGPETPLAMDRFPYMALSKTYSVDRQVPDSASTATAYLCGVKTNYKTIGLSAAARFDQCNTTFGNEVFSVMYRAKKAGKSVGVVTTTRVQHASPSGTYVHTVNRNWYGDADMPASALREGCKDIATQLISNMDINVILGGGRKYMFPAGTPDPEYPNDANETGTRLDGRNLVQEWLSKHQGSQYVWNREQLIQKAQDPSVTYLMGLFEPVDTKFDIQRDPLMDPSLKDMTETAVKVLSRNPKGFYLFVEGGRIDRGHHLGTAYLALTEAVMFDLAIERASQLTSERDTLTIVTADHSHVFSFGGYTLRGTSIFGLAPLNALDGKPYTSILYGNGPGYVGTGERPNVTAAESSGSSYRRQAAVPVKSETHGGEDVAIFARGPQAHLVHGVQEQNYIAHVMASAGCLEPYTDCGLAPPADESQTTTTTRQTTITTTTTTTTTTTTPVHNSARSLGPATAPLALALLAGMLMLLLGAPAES

A word on the EC50: it is the concentration needed to bring the measured effect to its halfway point. The IC50 is the concentration at which inhibition is half-maximal. Take `N#C/C(=C\c1coc2ccc(O)cc2c1=O)C(=O)/N=c1\[nH]c2ccccc2s1`: the 50% effective concentration (EC50) in test [1] was 81.5 µM (active); in test [2], 85 µM (active); in test [4], 88.5 µM (active). Also, the concentration for half-maximal inhibition (IC50) in test [3] is 15.9 µM (active).

Usually CC50 stands for the concentration at which the toxic effect on the cells reaches its halfway point. Take `N#C/C(=C/c1ccc(OCc2ccc(C(=O)O)cc2)c(Br)c1)c1cccc(F)c1`: the concentration for half-maximal inhibition (IC50) was 4.86 µM (active) in test [5]; 1.6 µM (active) in test [6]; 20.5 µM (active) in test [7]; 13.7 µM (active) in test [8]; 18.8 µM (active) in test [9]; 7.71 µM (active) in test [10]. Besides, the IC50 in [12] was > 50 µM (inactive); in test [13] it was 14.6 µM (active); in test [14], 1.65 µM (active); in test [15], 12.6 µM (active); in test [16], 2.61 µM (active); in test [17], 3.15 µM (active). Besides, the IC50 in test [18] is 8.8 µM (active); in test [19], 2.66 µM (active); in [20], 0.481 µM (active); in test [21], 15.7 µM (active). The CC50 in [11] is > 50 µM (active).

With `CCC(=NNc1ccnc2cc(Cl)ccc12)c1ccc(O)cc1`, the IC50 in test [22] was 3.54 µM (active); in test [23], > 32 µM (inactive); in test [25], > 32 µM (inactive); in test [28] it was 3.62 µM (active). Moreover, the results for the EC50 in test [24], in test [26] and in test [27] were 30.7 µM (inactive), > 32 µM (inactive) and 25.3 µM (inactive), respectively.

Take `COc1ccc(CN(CCNC(=O)c2ccc(CNS(=O)(=O)Cc3ccccc3)cc2)C(C)C)cc1`: the IC50 in test [29] was 1.66 µM (active); in [30] it was 0.452 µM (active).

For the origin of these results see ChEMBL document CHEMBL1201862, “PubChem BioAssay data set” (2004).
